The values that follow come from paper PMC6562126, “Identification and characterization of a carnitine transporter in Acinetobacter baumannii” (MicrobiologyOpen, 2018).

The target in test [1] is T1, Aci01347 (Acinetobacter baumannii, UniProt D0C9N4).
T1 construct: gene HMPREF0010_01347; N-terminal His6 tag, pBAD/HisA; expressed in E. coli MKH13 (no compatible solute transporters)
T1 sequence (D0C9N4 1-550): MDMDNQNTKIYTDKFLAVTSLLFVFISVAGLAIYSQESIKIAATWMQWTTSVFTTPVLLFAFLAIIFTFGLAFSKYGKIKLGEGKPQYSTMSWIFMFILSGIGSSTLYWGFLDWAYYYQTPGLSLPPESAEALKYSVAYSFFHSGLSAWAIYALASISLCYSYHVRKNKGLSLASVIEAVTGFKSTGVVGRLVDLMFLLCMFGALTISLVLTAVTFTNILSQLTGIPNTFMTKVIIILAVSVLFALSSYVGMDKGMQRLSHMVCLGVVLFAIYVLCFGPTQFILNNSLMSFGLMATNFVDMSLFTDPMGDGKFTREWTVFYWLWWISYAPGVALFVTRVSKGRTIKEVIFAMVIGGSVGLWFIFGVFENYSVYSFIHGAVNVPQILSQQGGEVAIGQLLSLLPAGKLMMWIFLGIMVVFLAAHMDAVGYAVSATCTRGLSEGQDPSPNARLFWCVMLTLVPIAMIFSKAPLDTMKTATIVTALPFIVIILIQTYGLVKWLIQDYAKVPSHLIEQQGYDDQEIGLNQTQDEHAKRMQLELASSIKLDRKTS
The test is described as follows: […]-choline uptake in E. coli MKH13 expressing Aci01347. The test is classed as cell-based. To be noted: 500 µM substrate; KPi 25 mM pH 7.5, 0.2 osmol/kg, 37 °C, glucose-energised cells; labelled compound.

Test [2] addresses T1, Aci01347. The test is described as follows: competition with […]-choline uptake in E. coli MKH13 expressing Aci01347. The format is cell-based. To be noted: read-out: % inhibition at 0.5 mM.

For `C[N+](C)(C)CCO` [choline, 2-hydroxyethyl trimethylammonium chloride], the “[14C]-choline uptake in E. coli MKH13 expressing Aci01347” value at Aci01347 [1] is “These data demonstrate that Aci01347 translocates choline”. Take `CC1=NCC[C@@H](C(=O)O)N1` [ectoine]: the inhibition at 500 µM on Aci01347 [2] was 9.2%. The same measure, in the same setting: in the case of `C[N+](C)(C)CC(=O)[O-]` [glycine betaine] it was 14.5%.

As for `C[N+]1(C)CCC[C@H]1C(=O)[O-]` [proline betaine], the inhibition at 500 µM at Aci01347 [2] was found to be 2.4%. On the same count and under the same terms, in the case of `O=C(O)[C@@H]1CCCN1` [proline] it was 4.6%.
